# From ChEMBL document CHEMBL1154899, “Synthesis and biological evaluation of caffeic acid 3,4-dihydroxyphenethyl ester” (J Nat Prod, 2010)
# Tests used:
# Format in all cases: functional
# [1] = test system: SF-295; experiment: Antiproliferative activity against human SF295 cells assessed as cell growth at 50 uM by SRB assay; settings: read-out: Activity
# [2] = test system: NCI-H460; experiment: Antiproliferative activity against human NCI-H460 cells assessed as cell growth at 5 uM by SRB assay; settings: read-out: Activity
# [3] = test system: IGROV-1; experiment: Antiproliferative activity against human IGROV1 cells by SRB assay
# [4] = test system: SK-MEL-5; experiment: Antiproliferative activity against human SK-MEL-5 cells by SRB assay
# [5] = test system: NCI-H226; experiment: Antiproliferative activity against human NCI-H226 cells assessed as cell growth at 50 uM by SRB assay; settings: read-out: Activity
# [6] = Antiproliferative activity against human […] cells assessed as cell growth at 500 uM by SRB assay; settings: read-out: Activity
# [7] = test system: UACC-62; experiment: Antiproliferative activity against human UACC62 cells assessed as cell growth at 50 uM by SRB assay; settings: read-out: Activity
# [8] = test system: SNB-19; experiment: Antiproliferative activity against human SNB19 cells assessed as cell growth at 500 uM by SRB assay; settings: read-out: Activity
# [9] = test system: MCF7; experiment: Antiproliferative activity against human MCF7 cells assessed as cell growth at 0.5 uM by SRB assay; settings: read-out: Activity
# [10] = test system: MDA-MB-231; experiment: Antiproliferative activity against human MDA-MB-231 cells assessed as cell growth at 0.5 uM by SRB assay; settings: read-out: Activity
# [11] = test system: HOP-62; experiment: Antiproliferative activity against human HOP62 cells assessed as cell growth at 0.5 uM by SRB assay; settings: read-out: Activity
# [12] = test system: NCI-H322M; experiment: Antiproliferative activity against human NCI-H322M cells assessed as cell growth at 50 uM by SRB assay; settings: read-out: Activity
# [13] = test system: UACC-257; experiment: Antiproliferative activity against human UACC257 cells assessed as cell growth at 0.5 uM by SRB assay; settings: read-out: Activity
# [14] = test system: TK-10; experiment: Antiproliferative activity against human TK10 cells assessed as cell growth at 5 uM by SRB assay; settings: read-out: Activity
# [15] = test system: NCI-H322M; experiment: Antiproliferative activity against human NCI-H322M cells assessed as cell growth at 0.5 uM by SRB assay; settings: read-out: Activity
# [16] = test system: MOLT-4; experiment: Antiproliferative activity against human MOLT4 cells assessed as cell growth at 50 uM by SRB assay; settings: read-out: Activity
# [17] = test system: A549; experiment: Antiproliferative activity against human A549 cells assessed as cell growth at 500 uM by SRB assay; settings: read-out: Activity
# [18] = test system: A498; experiment: Antiproliferative activity against human A498 cells assessed as cell growth at 50 uM by SRB assay; settings: read-out: Activity
# [19] = test system: HL-60(TB); experiment: Antiproliferative activity against human HL-60(TB) cells assessed as cell growth at 5 uM by SRB assay; settings: read-out: Activity
# [20] = test system: SK-OV-3; experiment: Antiproliferative activity against human SKOV3 cells assessed as cell growth at 5 uM by SRB assay; settings: read-out: Activity
# [21] = test system: BT-549; experiment: Antiproliferative activity against human BT549 cells assessed as cell growth at 50 uM by SRB assay; settings: read-out: Activity
# [22] = test system: SR; experiment: Antiproliferative activity against human SR cells by SRB assay
# [23] = test system: SNB-19; experiment: Antiproliferative activity against human SNB19 cells assessed as cell growth at 0.5 uM by SRB assay; settings: read-out: Activity
# [24] = test system: SW-620; experiment: Antiproliferative activity against human SW620 cells assessed as cell growth at 5 uM by SRB assay; settings: read-out: Activity
# [25] = test system: SK-MEL-2; experiment: Antiproliferative activity against human SK-MEL-2 cells assessed as cell growth at 0.5 uM by SRB assay; settings: read-out: Activity
# [26] = test system: U-251; experiment: Antiproliferative activity against human U251 cells assessed as cell growth at 5 uM by SRB assay; settings: read-out: Activity
# [27] = test system: IGROV-1; experiment: Antiproliferative activity against human IGROV1 cells assessed as cell growth at 0.5 uM by SRB assay; settings: read-out: Activity
# [28] = test system: K562; experiment: Antiproliferative activity against human K562 cells by SRB assay
# [29] = test system: NCI-H460; experiment: Antiproliferative activity against human NCI-H460 cells assessed as cell growth at 0.5 uM by SRB assay; settings: read-out: Activity
# [30] = test system: UACC-62; experiment: Antiproliferative activity against human UACC62 cells assessed as cell growth at 500 uM by SRB assay; settings: read-out: Activity
# [31] = test system: DU-145; experiment: Antiproliferative activity against human DU145 cells assessed as cell growth at […] by SRB assay; settings: read-out: Activity
# [32] = test system: MDA-MB-231; experiment: Antiproliferative activity against human MDA-MB-231 cells assessed as cell growth at 50 uM by SRB assay; settings: read-out: Activity
# [33] = test system: HCT-116; experiment: Antiproliferative activity against human HCT116 cells assessed as cell growth at 500 uM by SRB assay; settings: read-out: Activity
# [34] = test system: KM12; experiment: Antiproliferative activity against human KM12 cells assessed as cell growth at 50 uM by SRB assay; settings: read-out: Activity
# [35] = test system: 786-0; experiment: Antiproliferative activity against human 786-0 cells assessed as cell growth at 0.5 uM by SRB assay; settings: read-out: Activity
# [36] = test system: HCC 2998; experiment: Antiproliferative activity against human HCC2998 cells assessed as cell growth at 0.5 uM by SRB assay; settings: read-out: Activity
# [37] = test system: SK-MEL-5; experiment: Antiproliferative activity against human SK-MEL-5 cells assessed as cell growth at 5 mM by SRB assay; settings: read-out: Activity
# [38] = test system: NCI/ADR-RES; experiment: Antiproliferative activity against human NCI/ADR-RES cells assessed as cell growth at 500 uM by SRB assay; settings: read-out: Activity
# [39] = test system: CAKI-1; experiment: Antiproliferative activity against human Caki1 cells assessed as cell growth at 500 uM by SRB assay; settings: read-out: Activity
# [40] = test system: SF-295; experiment: Antiproliferative activity against human SF295 cells by SRB assay
# [41] = test system: COLO 205; experiment: Antiproliferative activity against human COLO205 cells assessed as cell growth at 500 uM by SRB assay; settings: read-out: Activity
# [42] = test system: CCRF-CEM; experiment: Antiproliferative activity against human CCRF-CEM cells assessed as cell growth at 5 uM by SRB assay; settings: read-out: Activity
# [43] = test system: SK-MEL-2; experiment: Antiproliferative activity against human SK-MEL-2 cells assessed as cell growth at 5 uM by SRB assay; settings: read-out: Activity
# [44] = test system: NCI-H322M; experiment: Antiproliferative activity against human NCI-H322M cells assessed as cell growth at 500 uM by SRB assay; settings: read-out: Activity
# [45] = read-out: LC50 (the source's name)
# [46] = read-out: pLC50 (the source's name) (converted)
smiles,measurement,setting,value
O=C(/C=C/c1ccc(O)c(O)c1)OCCc1ccc(O)c(O)c1,growth at 50 µM,[1],87%
same,growth at 5 µM,[2],92%
same,GI50,[3]; read-out: GI50,2.86 µM
same,CC50,[3]; [45],> 50 µM
same,TGI,[3]; read-out: TGI,24.4 µM
same,GI50,[3]; read-out: pGI50 (converted),2.88 µM
same,CC50,[3]; [46],> 50.1 µM
same,TGI,[3]; read-out: pTGI (converted),15.5 µM
same,GI50,[4]; read-out: GI50,8.12 µM
same,CC50,[4]; [45],> 50 µM
same,TGI,[4]; read-out: TGI,47.7 µM
same,GI50,[4]; read-out: pGI50 (converted),8.13 µM
same,CC50,[4]; [46],> 50.1 µM
same,TGI,[4]; read-out: pTGI (converted),47.9 µM
same,growth at 50 µM,[5],90%
same,growth at 500 µM,[6],11%
same,growth at 50 µM,[7],84%
same,growth at 500 µM,[8],79%
same,growth at 0.5 µM,[9],94%
same,growth at 0.5 µM,[10],113%
same,growth at 0.5 µM,[11],92%
same,growth at 50 µM,[12],97%
same,growth at 0.5 µM,[13],93%
same,growth at 5 µM,[14],95%
same,growth at 0.5 µM,[15],90%
same,growth at 50 µM,[16],89%
same,growth at 500 µM,[17],96%
same,growth at 50 µM,[18],95%
same,growth at 5 µM,[19],85%
same,growth at 5 µM,[20],96%
same,growth at 50 µM,[21],97%
same,GI50,[22]; read-out: GI50,1.49 µM
same,CC50,[22]; [45],> 50 µM
same,TGI,[22]; read-out: TGI,12.7 µM
same,GI50,[22]; read-out: pGI50 (converted),1.48 µM
same,CC50,[22]; [46],> 50.1 µM
same,TGI,[22]; read-out: pTGI (converted),12.6 µM
same,growth at 0.5 µM,[23],93%
same,growth at 5 µM,[24],95%
same,growth at 0.5 µM,[25],86%
same,growth at 5 µM,[26],97%
same,growth at 0.5 µM,[27],112%
same,GI50,[28]; read-out: GI50,1.56 µM
same,CC50,[28]; [45],> 50 µM
same,TGI,[28]; read-out: TGI,19.9 µM
same,GI50,[28]; read-out: pGI50 (converted),1.55 µM
same,CC50,[28]; [46],> 50.1 µM
same,TGI,[28]; read-out: pTGI (converted),20 µM
same,growth at 0.5 µM,[29],95%
same,growth at 500 µM,[30],52%
same,growth,[31],-22%
same,growth at 50 µM,[32],97%
same,growth at 500 µM,[33],65%
same,growth at 50 µM,[34],81%
same,growth at 0.5 µM,[35],97%
same,growth at 0.5 µM,[36],93%
same,growth at 5000 µM,[37],-1%
same,growth at 500 µM,[38],78%
same,growth at 500 µM,[39],68%
same,GI50,[40]; read-out: GI50,16.1 µM
same,CC50,[40]; [45],> 50 µM
same,TGI,[40]; read-out: TGI,> 50 µM
same,GI50,[40]; read-out: pGI50 (converted),16.2 µM
same,CC50,[40]; [46],> 50.1 µM
same,TGI,[40]; read-out: pTGI,> 50.1 µM
same,growth at 500 µM,[41],84%
same,growth at 5 µM,[42],99%
same,growth at 5 µM,[43],95%
same,growth at 500 µM,[44],86%
